Data reported in patent US20230220035A1 (DONG-A ST CO., LTD., published 2023).

Tests used:
glucagon receptor = glucagon receptor (Homo sapiens, UniProt P47871); test: Human glucagon receptor activation assay (CRE-luciferase); format: cell-based; design: host or cells: CHO-K1; conditions: CHO-K1 cells transiently transfected; for Emax: 6 h, relative to glucagon, read-out: GCG receptor Maximum activation (% vs GCG); for EC50: 6 hours, 0.1% BSA, read-out: GCG receptor EC50
Experimental: (§1) Then, the resulting increased luciferase activity was evaluated as a measurement of the effect on each receptor activation.
(§2) For positive control, endogenous ligand GLP-1 or glucagon was used for respective evaluation. The above-mentioned acylated oxyntomodulin peptide analogs of Comparative Example 8-12 were synthesized and used as comparative examples.
(§3) After 3 hours of transfection, medium was exchanged to Alpha Minimal Essential Medium (α-MEM) comprising 10% fetal bovine serum (FBS). Next day, the medium was exchanged to α-MEM comprising the acylated oxyntomodulin peptide analog of the present invention and 0.1% bovine serum albumin (BSA). After 6 hours, dual luciferase assay reagent (Promega) was added in the same amount as the medium in which the cells were submerged, and firefly luciferase and Renilla luciferase activities were successively measured. Firefly luciferase activity values were corrected against Renilla luciferase activity to yield transfection efficiency.

GLP-1 receptor = GLP-1 receptor (Homo sapiens, UniProt P43220); test: Human GLP-1 receptor activation assay (CRE-luciferase); format: cell-based; design: host or cells: CHO-K1; conditions: for Emax: CHO-K1, 6 h, read-out: GLP-1 receptor Maximum activation (% vs GLP-1); for EC50: CHO-K1 cells transiently transfected, luciferase, 6 hours, 0.1% BSA
GLP-1 receptor, sequence (P43220 24-463): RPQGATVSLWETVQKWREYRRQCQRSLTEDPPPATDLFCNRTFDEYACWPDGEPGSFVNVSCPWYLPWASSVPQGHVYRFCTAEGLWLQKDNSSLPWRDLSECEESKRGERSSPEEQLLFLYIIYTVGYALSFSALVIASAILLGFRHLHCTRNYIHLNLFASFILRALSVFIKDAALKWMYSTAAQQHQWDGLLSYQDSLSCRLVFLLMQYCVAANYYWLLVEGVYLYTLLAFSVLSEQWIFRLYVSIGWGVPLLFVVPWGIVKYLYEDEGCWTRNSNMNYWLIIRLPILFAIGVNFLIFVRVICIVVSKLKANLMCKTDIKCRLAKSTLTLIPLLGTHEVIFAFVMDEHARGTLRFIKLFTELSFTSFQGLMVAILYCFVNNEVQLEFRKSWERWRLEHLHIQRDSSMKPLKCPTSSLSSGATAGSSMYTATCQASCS
Experimental: as §1, §2, §3

in vivo = conditions: cynomolgus monkey, sc
Text: Cynomolgus monkeys were used to evaluate the pharmacokinetics in monkeys of the acylated oxyntomodulin peptide analogs according to the present invention.

glucagon receptor, sequence (P47871 26-477): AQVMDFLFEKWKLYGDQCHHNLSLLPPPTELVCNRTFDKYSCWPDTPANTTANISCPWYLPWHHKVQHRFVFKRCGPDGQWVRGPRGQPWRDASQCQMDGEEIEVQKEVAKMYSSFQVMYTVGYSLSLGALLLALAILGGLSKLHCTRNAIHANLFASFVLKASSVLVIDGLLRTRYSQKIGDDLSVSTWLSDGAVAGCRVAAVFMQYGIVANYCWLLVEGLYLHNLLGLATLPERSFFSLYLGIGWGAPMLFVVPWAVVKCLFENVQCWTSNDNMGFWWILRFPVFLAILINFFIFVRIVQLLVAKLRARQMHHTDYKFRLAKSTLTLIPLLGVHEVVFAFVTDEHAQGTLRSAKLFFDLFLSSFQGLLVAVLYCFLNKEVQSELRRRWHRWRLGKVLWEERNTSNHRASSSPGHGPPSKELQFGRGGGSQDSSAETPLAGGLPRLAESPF

## CCCCCCCCCCCCCCCCCC(=O)N[C@@H](CCC(=O)NCCOCCOCC(=O)NCCOCCOCC(=O)NCCCC[C@H](NC(=O)[C@H](CC(=O)O)NC(=O)[C@H](CO)NC(=O)[C@@H](NC(=O)[C@H](Cc1ccccc1)NC(=O)[C@@H](NC(=O)CNC(=O)[C@H](CCC(N)=O)NC(=O)C(C)(C)NC(=O)[C@@H](N)Cc1c[nH]cn1)[C@@H](C)O)[C@@H](C)O)C(=O)N[C@@H](CO)C(=O)N[C@@H](CCCCN)C(=O)N[C@@H](Cc1ccc(O)cc1)C(=O)N[C@@H](CC(C)C)C(=O)N[C@@H](CC(=O)O)C(=O)NC(C)(C)C(=O)N[C@@H](CCCNC(=N)N)C(=O)N[C@@H](CCCNC(=N)N)C(=O)N[C@@H](C)C(=O)N[C@@H](CCC(N)=O)C(=O)N[C@@H](CC(=O)O)C(=O)N[C@@H](Cc1ccccc1)C(=O)N[C@H](C(=O)N[C@@H](CCC(N)=O)C(=O)N[C@@H](Cc1c[nH]c2ccccc12)C(=O)N[C@@H](CC(C)C)C(=O)N[C@@H](CCSC)C(=O)N[C@@H](CC(N)=O)C(=O)N[C@H](C(=O)N[C@@H](CCCCN)C(=O)N[C@@H](CCC(=O)O)C(=O)N[C@@H](Cc1ccc(O)cc1)C(=O)N[C@@H](CCC(=O)O)C(=O)N[C@@H](CCCCNC(=O)COCCOCCNC(=O)COCCOCCNC(=O)COCCOCCNC(=O)CCCCCCCCCCCCCCC)C(=O)N[C@@H](CCC(=O)O)C(=O)N[C@@H](Cc1ccc(O)cc1)C(=O)N[C@@H](CCC(=O)O)C(=O)O)[C@@H](C)O)C(C)C)C(=O)O [Compound 12]
Glucagon receptor
  Emax: 89.6%
  EC50: < 0.1 nM
GLP-1 receptor
  Emax: 102%
  EC50: < 0.1 nM
In vivo; Monkey PK (S.C. half-life)
  half-life: 6 to 12 h
In vivo; monkey PK half-life
  half-life: < 12 h

## CCCCCCCCCCCCCCCCCC(=O)N[C@@H](CCC(=O)NCCOCCOCC(=O)NCCOCCOCC(=O)NCCCC[C@H](NC(=O)[C@H](CC(=O)O)NC(=O)[C@H](CO)NC(=O)[C@@H](NC(=O)[C@H](Cc1ccccc1)NC(=O)[C@@H](NC(=O)CNC(=O)[C@H](CCC(N)=O)NC(=O)C(C)(C)NC(=O)[C@@H](N)Cc1c[nH]cn1)[C@@H](C)O)[C@@H](C)O)C(=O)N[C@@H](CO)C(=O)N[C@@H](CCCCN)C(=O)N[C@@H](Cc1ccc(O)cc1)C(=O)N[C@@H](CC(C)C)C(=O)N[C@@H](CC(=O)O)C(=O)NC(C)(C)C(=O)N[C@@H](CCCNC(=N)N)C(=O)N[C@@H](CCCNC(=N)N)C(=O)N[C@@H](C)C(=O)N[C@@H](CCC(N)=O)C(=O)N[C@@H](CC(=O)O)C(=O)N[C@@H](Cc1ccccc1)C(=O)N[C@H](C(=O)N[C@@H](CCC(N)=O)C(=O)N[C@@H](Cc1c[nH]c2ccccc12)C(=O)N[C@@H](CC(C)C)C(=O)N[C@@H](CCSC)C(=O)N[C@@H](CC(N)=O)C(=O)N[C@H](C(=O)N[C@@H](CCCCN)C(=O)N[C@@H](CCC(=O)O)C(=O)N[C@@H](Cc1ccc(O)cc1)C(=O)N[C@@H](CCC(=O)O)C(=O)N[C@@H](CCCCNC(=O)COCCOCCNC(=O)COCCOCCNC(=O)COCCOCCNC(=O)CC[C@H](NC(=O)CCCCCCCCCCCCCCCCC(=O)O)C(=O)O)C(=O)N[C@@H](CCC(=O)O)C(=O)N[C@@H](Cc1ccc(O)cc1)C(=O)N[C@@H](CCC(=O)O)C(=O)O)[C@@H](C)O)C(C)C)C(=O)O [Compound 5]
Glucagon receptor
  Emax: 99.4%
  EC50: 0.1 to 1 nM
GLP-1 receptor
  Emax: 93.6%
  EC50: 0.1 to 1 nM
In vivo; Monkey PK (S.C. half-life)
  half-life: 18 to 24 h
In vivo; monkey PK half-life
  half-life: 12 to 24 h

## CCCCCCCCCCCCCCCCCC(=O)N[C@@H](CCC(=O)NCCOCCOCC(=O)NCCOCCOCC(=O)NCCCC[C@H](NC(=O)[C@H](CC(=O)O)NC(=O)[C@H](CO)NC(=O)[C@@H](NC(=O)[C@H](Cc1ccccc1)NC(=O)[C@@H](NC(=O)CNC(=O)[C@H](CCC(N)=O)NC(=O)C(C)(C)NC(=O)[C@@H](N)Cc1c[nH]cn1)[C@@H](C)O)[C@@H](C)O)C(=O)N[C@@H](CO)C(=O)N[C@@H](CCCCN)C(=O)N[C@@H](Cc1ccc(O)cc1)C(=O)N[C@@H](CC(C)C)C(=O)N[C@@H](CC(=O)O)C(=O)NC(C)(C)C(=O)N[C@@H](CCCNC(=N)N)C(=O)N[C@@H](CCCNC(=N)N)C(=O)N[C@@H](C)C(=O)N[C@@H](CCC(N)=O)C(=O)N[C@@H](CC(=O)O)C(=O)N[C@@H](Cc1ccccc1)C(=O)N[C@H](C(=O)N[C@@H](CCC(N)=O)C(=O)N[C@@H](Cc1c[nH]c2ccccc12)C(=O)N[C@@H](CC(C)C)C(=O)N[C@@H](CCSC)C(=O)N[C@@H](CC(N)=O)C(=O)N[C@H](C(=O)N[C@@H](CCCCN)C(=O)N[C@@H](CCC(=O)O)C(=O)N[C@@H](Cc1ccc(O)cc1)C(=O)N[C@@H](CCC(=O)O)C(=O)N[C@@H](CCCCNC(=O)[C@@H](N)CCCCNC(=O)CCCCCCCCCCCCCCCCC(=O)O)C(=O)N[C@@H](CCC(=O)O)C(=O)N[C@@H](Cc1ccc(O)cc1)C(=O)N[C@@H](CCC(=O)O)C(=O)O)[C@@H](C)O)C(C)C)C(=O)O [Compound 4]
Glucagon receptor
  Emax: 95.4%
  EC50: ≥ 1 nM
GLP-1 receptor
  Emax: 87.9%
  EC50: 0.1 to 1 nM
In vivo; Monkey PK (S.C. half-life)
  half-life: 18 to 24 h
In vivo; monkey PK half-life
  half-life: 12 to 24 h

## CCCCCCCCCCCCCCCCCC(=O)N[C@@H](CCC(=O)NCCOCCOCC(=O)NCCOCCOCC(=O)NCCCC[C@H](NC(=O)[C@H](CC(=O)O)NC(=O)[C@H](CO)NC(=O)[C@@H](NC(=O)[C@H](Cc1ccccc1)NC(=O)[C@@H](NC(=O)CNC(=O)[C@H](CCC(N)=O)NC(=O)C(C)(C)NC(=O)[C@@H](N)Cc1c[nH]cn1)[C@@H](C)O)[C@@H](C)O)C(=O)N[C@@H](CO)C(=O)N[C@@H](CCCCN)C(=O)N[C@@H](Cc1ccc(O)cc1)C(=O)N[C@@H](CC(C)C)C(=O)N[C@@H](CC(=O)O)C(=O)NC(C)(C)C(=O)N[C@@H](CCCNC(=N)N)C(=O)N[C@@H](CCCNC(=N)N)C(=O)N[C@@H](C)C(=O)N[C@@H](CCC(N)=O)C(=O)N[C@@H](CC(=O)O)C(=O)N[C@@H](Cc1ccccc1)C(=O)N[C@H](C(=O)N[C@@H](CCC(N)=O)C(=O)N[C@@H](Cc1c[nH]c2ccccc12)C(=O)N[C@@H](CC(C)C)C(=O)N[C@@H](CCSC)C(=O)N[C@@H](CC(N)=O)C(=O)N[C@H](C(=O)N[C@@H](CCCCN)C(=O)N[C@@H](CCC(=O)O)C(=O)N[C@@H](Cc1ccc(O)cc1)C(=O)N[C@@H](CCC(=O)O)C(=O)N[C@@H](CCCCNC(=O)CCCCCCCCCCCCCCC(N)=O)C(=O)N[C@@H](CCC(=O)O)C(=O)N[C@@H](Cc1ccc(O)cc1)C(=O)N[C@@H](CCC(=O)O)C(=O)O)[C@@H](C)O)C(C)C)C(=O)O [Compound 11]
Glucagon receptor
  Emax: 98.5%
  EC50: < 0.1 nM
GLP-1 receptor
  Emax: 92.8%
  EC50: < 0.1 nM
In vivo; Monkey PK (S.C. half-life)
  half-life: 6 to 12 h
In vivo; monkey PK half-life
  half-life: < 12 h

## CCCCCCCCCCCCCCCCCC(=O)N[C@@H](CCC(=O)NCCOCCOCC(=O)NCCOCCOCC(=O)NCCCC[C@H](NC(=O)[C@H](CC(=O)O)NC(=O)[C@H](CO)NC(=O)[C@@H](NC(=O)[C@H](Cc1ccccc1)NC(=O)[C@@H](NC(=O)CNC(=O)[C@H](CCC(N)=O)NC(=O)C(C)(C)NC(=O)[C@@H](N)Cc1c[nH]cn1)[C@@H](C)O)[C@@H](C)O)C(=O)N[C@@H](CO)C(=O)N[C@@H](CCCCN)C(=O)N[C@@H](Cc1ccc(O)cc1)C(=O)N[C@@H](CC(C)C)C(=O)N[C@@H](CC(=O)O)C(=O)NC(C)(C)C(=O)N[C@@H](CCCNC(=N)N)C(=O)N[C@@H](CCCNC(=N)N)C(=O)N[C@@H](C)C(=O)N[C@@H](CCC(N)=O)C(=O)N[C@@H](CC(=O)O)C(=O)N[C@@H](Cc1ccccc1)C(=O)N[C@H](C(=O)N[C@@H](CCC(N)=O)C(=O)N[C@@H](Cc1c[nH]c2ccccc12)C(=O)N[C@@H](CC(C)C)C(=O)N[C@@H](CCSC)C(=O)N[C@@H](CC(N)=O)C(=O)N[C@H](C(=O)N[C@@H](CCCCN)C(=O)N[C@@H](CCC(=O)O)C(=O)N[C@@H](Cc1ccc(O)cc1)C(=O)N[C@@H](CCC(=O)O)C(=O)N[C@@H](CCCCNC(=O)CCCCCCCCCCCCC(N)=O)C(=O)N[C@@H](CCC(=O)O)C(=O)N[C@@H](Cc1ccc(O)cc1)C(=O)N[C@@H](CCC(=O)O)C(=O)O)[C@@H](C)O)C(C)C)C(=O)O [Compound 10]
Glucagon receptor
  Emax: 110%
  EC50: < 0.1 nM
GLP-1 receptor
  Emax: 105%
  EC50: < 0.1 nM
In vivo; Monkey PK (S.C. half-life)
  half-life: < 6 h
In vivo; monkey PK half-life
  half-life: < 12 h

## CCCCCCCCCCCCCCCCCC(=O)N[C@@H](CCC(=O)NCCOCCOCC(=O)NCCOCCOCC(=O)NCCCC[C@H](NC(=O)[C@H](CC(=O)O)NC(=O)[C@H](CO)NC(=O)[C@@H](NC(=O)[C@H](Cc1ccccc1)NC(=O)[C@@H](NC(=O)CNC(=O)[C@H](CCC(N)=O)NC(=O)C(C)(C)NC(=O)[C@@H](N)Cc1c[nH]cn1)[C@@H](C)O)[C@@H](C)O)C(=O)N[C@@H](CO)C(=O)N[C@@H](CCCCN)C(=O)N[C@@H](Cc1ccc(O)cc1)C(=O)N[C@@H](CC(C)C)C(=O)N[C@@H](CC(=O)O)C(=O)NC(C)(C)C(=O)N[C@@H](CCCNC(=N)N)C(=O)N[C@@H](CCCNC(=N)N)C(=O)N[C@@H](C)C(=O)N[C@@H](CCC(N)=O)C(=O)N[C@@H](CC(=O)O)C(=O)N[C@@H](Cc1ccccc1)C(=O)N[C@H](C(=O)N[C@@H](CCC(N)=O)C(=O)N[C@@H](Cc1c[nH]c2ccccc12)C(=O)N[C@@H](CC(C)C)C(=O)N[C@@H](CCSC)C(=O)N[C@@H](CC(N)=O)C(=O)N[C@H](C(=O)N[C@@H](CCCCN)C(=O)N[C@@H](CCC(=O)O)C(=O)N[C@@H](Cc1ccc(O)cc1)C(=O)N[C@@H](CCC(=O)O)C(=O)N[C@@H](CCCCNC(=O)[C@@H](N)CCCCNC(=O)COCCOCCNC(=O)COCCOCCNC(=O)COCCOCCNC(=O)CC[C@H](NC(=O)CCCCCCCCCCCCCCCCC(=O)O)C(=O)O)C(=O)N[C@@H](CCC(=O)O)C(=O)N[C@@H](Cc1ccc(O)cc1)C(=O)N[C@@H](CCC(=O)O)C(=O)O)[C@@H](C)O)C(C)C)C(=O)O [Compound 6]
Glucagon receptor
  Emax: 89.1%
  EC50: 0.1 to 1 nM
GLP-1 receptor
  Emax: 83.8%
  EC50: 0.1 to 1 nM
In vivo; Monkey PK (S.C. half-life)
  half-life: 12 to 18 h
In vivo; monkey PK half-life
  half-life: 12 to 24 h
